Assay results from patent publication US10344024B2, “Compounds as ROR gamma modulators” (Glenmark Pharmaceuticals S.A., priority 2015, dated 2019).

Biological target: T1, GST-tagged ROR gamma ligand binding domain (LBD) (Homo sapiens, UniProt P51449)
T1 construct: purchased Invitrogen
T1 sequence (P51449 269-508 limits assumed): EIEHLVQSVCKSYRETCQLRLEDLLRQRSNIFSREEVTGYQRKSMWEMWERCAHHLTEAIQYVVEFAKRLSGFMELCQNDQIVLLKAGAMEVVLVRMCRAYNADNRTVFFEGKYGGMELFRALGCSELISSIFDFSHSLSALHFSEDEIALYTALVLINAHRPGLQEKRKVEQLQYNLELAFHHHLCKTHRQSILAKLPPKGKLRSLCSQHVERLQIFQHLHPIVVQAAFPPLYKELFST
Test: TR-FRET assay for ROR gamma (LanthaScreen co-activator peptide recruitment)
Format: biochemical
Settings: for inhibition at 1 µM: compound concentration 1 μM; for inhibition at 1 µM / inhibition at 10 µM: TR-FRET ratio 520/495, percent of control; for inhibition at 10 µM: compound concentration 10 μM; for IC50: from dose response curve, nonlinear regression, read-out: IC50 range
Outline: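 Antagonist-mode co-activator recruitment: 10 nM GST-RORγ LBD with compound (4% DMSO final) in 25 mM HEPES pH 7.4, 100 mM NaCl, 5 mM DTT, 0.01% BSA, 1 h at 22° C.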

Row | SMILES | inhibition at 1 µM [%] | inhibition at 10 µM [%] | IC50 [nM]
1 | CCC(F)(F)c1ccc(CC(=O)Nc2ccc(-c3nccnc3-c3ccccc3F)cc2)cc1 [Example 11, 2-(4-(1,1-Difluoropropyl)phenyl)-N-(4-(3-(2-fluorophenyl)pyrazin-2-yl)phenyl)acetamide] | 78.8 | 83.8 | < 50
2 | CCC(F)(F)c1ccc(CC(=O)Nc2ccc(-c3nccnc3-c3ccc(F)cc3F)cc2)cc1 [Example 10, N-(4-(3-(2,4-Difluorophenyl)pyrazin-2-yl)phenyl)-2-(4-(1,1-difluoropropyl)phenyl)acetamide] | 78.2 | 83 | 50 to 100
3 | CCN1CCN(c2nccnc2-c2ccc(NC(=O)Cc3ccc(C(F)(F)CC)cc3)cc2)CC1 [Example 33, 2-(4-(1,1-Difluoropropyl)phenyl)-N-(4-(3-(4-ethylpiperazin-1-yl)pyrazin-2-yl)phenyl)acetamide] | 27.3 | 75.8 | –
4 | CCC(F)(F)c1ccc(CC(=O)Nc2ccc(-c3nccnc3N[C@@H](C)c3ccccc3)cc2)cc1 [Example 61, (S)-2-(4-(1,1-Difluoropropyl)phenyl)-N-(4-(3-((1-phenylethyl)amino)pyrazin-2-yl)phenyl)acetamide] | 84.2 | 91.4 | 50 to 100
5 | CCC(F)(F)c1ccc(CC(=O)Nc2ccc(-c3nccnc3N3CCN(C(C)=O)CC3C)cc2)cc1 (stereo not drawn) [Example 42, N-(4-(3-(4-Acetyl-2-methylpiperazin-1-yl)pyrazin-2-yl)phenyl)-2-(4-(1,1-difluoropropyl)phenyl)acetamide] | 51.9 | 76.1 | –
6 | CC(O)C(F)(F)c1ccc(CC(=O)Nc2ccc(-c3nccnc3-c3ccccc3Cl)cc2)cc1 (stereo not drawn) [Example 37, N-(4-(3-(2-Chlorophenyl)pyrazin-2-yl)phenyl)-2-(4-(1,1-difluoro-2-hydroxypropyl)phenyl)acetamide] | 71.1 | 73.5 | < 50
7 | CCC(F)(F)c1ccc(CC(=O)Nc2ccc(-c3nccnc3-c3ccc(=O)n(C)c3)cc2)cc1 [Example 25, 2-(4-(1,1-Difluoropropyl)phenyl)-N-(4-(3-(1-methyl-6-oxo-1,6-dihydropyridin-3-yl)pyrazin-2-yl)phenyl)acetamide] | 18.9 | 59.7 | –
8 | CCC(F)(F)c1ccc(CC(=O)Nc2ccc(-c3nccnc3-c3ccc(F)cc3C)cc2)cc1 [Example 44, 2-(4-(1,1-Difluoropropyl)phenyl)-N-(4-(3-(4-fluoro-2-methylphenyl)pyrazin-2-yl)phenyl)acetamide] | 76.9 | 84.1 | < 50
9 | CCC(F)(F)c1ccc(CC(=O)Nc2ccc(-c3nccnc3-c3ccc(C(F)(F)F)cc3)cc2)cc1 [Example 12, 2-(4-(1,1-Difluoropropyl)phenyl)-N-(4-(3-(4-(trifluoromethyl)phenyl)pyrazin-2-yl)phenyl)acetamide] | 85.6 | 83 | < 50
10 | CC(O)C(F)(F)c1ccc(CC(=O)Nc2ccc(-c3nccnc3-c3cccc(Cl)c3)cc2)cc1 (stereo not drawn) [Example 4, N-(4-(3-(3-Chlorophenyl)pyrazin-2-yl)phenyl)-2-(4-(1,1-difluoro-2-hydroxypropyl)phenyl)acetamide] | 60.7 | 77.8 | > 500
11 | CCC(F)(F)c1ccc(CC(=O)Nc2ccc(-c3nccnc3N(C)Cc3ccccc3)cc2)cc1 [Example 56, N-(4-(3-(Benzyl(methyl)amino)pyrazin-2-yl)phenyl)-2-(4-(1,1-difluoropropyl)phenyl)acetamide] | 73.4 | 85.8 | 100 to 500
12 | CCC(F)(F)c1ccc(CC(=O)Nc2ccc(-c3nccnc3-c3ccc(Cl)cc3F)cc2)cc1 [Example 6, N-(4-(3-(4-Chloro-2-fluorophenyl)pyrazin-2-yl)phenyl)-2-(4-(1,1-difluoropropyl)phenyl)acetamide] | 87.4 | 86.4 | < 50
